pEC50, pKi: −log10 of the molar value.
Columns and labels:
B-cell lymphoma = test: Oral efficacy of EXAMPLE 1 in combination therapy, antitumorigenesis on B-cell lymphoma; type: in vivo; conditions: without EXAMPLE 1
mantle cell lymphoma = test: Oral efficacy of EXAMPLE 1 in combination therapy, antitumorigenesis on mantle cell lymphoma; type: in vivo; conditions: without EXAMPLE 1
[1] = system: tumor cell lines (D54MG, NCI-H460, A549, PC3, EJ1, HCT116, DLD1, SW620, 786-O); test: Combination screen of VX-680, cell viability with Bliss additivism analysis; type: cell-based, human; conditions: VX-680 with ABT-263 in dose-response; viability 3 days after exposure
Description: Cell viability was determined 3 days after exposure to the combination regimens. Synergy or antagonism of drug combinations was determined using the Bliss additivism model of drug-drug interactions (See, Berenbaum, M. C., Cancer Res 35, 269-335 (1981)). The value in excess of Bliss additivism for each dose was determined for all combinations and defined as follows: >15=synergistic, 0-15=no interaction, <−15=antagonistic. These values are expressed in a heatmap using SPOTFIRE® (TIBCO®) data analysis software where synergy is indicated in red, no interaction in gray, and antagonism in blue. […] These values are not applicable for Bliss analysis and were excluded from the heatmap. Compounds tested in combination are shown at the right. The targets/mechanisms of action of each of these agents and the corresponding dose responses for the combination screen is summarized in Table A in EXAMPLE 40.
(§1) Generally, cells were seeded at >90% viability (as determined by trypan blue exclusion) into 96-well plates overnight, treated with compounds or siRNAs for indicated duration, and the overall cell viability was determined by measuring luminescence.
Combined response scores greater than 15 were considered synergistic. […]

HCT116 cells = test: Aurora inhibitors in combination with ABT-263, cell viability (CellTiter-GLO); type: cell-based, human; conditions: 1 μM ABT-263, 72 hours; MLN8054 at Aurora A-selective concentrations (<5 μM)
Description: 24 hours post-transfection, cells were treated with ABT-263 in dose response, and cell viability was determined 72 hours after the addition of ABT-263. […] MLN8054 (FIG. 9C) or AZD1152 (FIG. 9D) were tested in combination with DMSO or 1 μM ABT-263 in HCT116 cells. Cell viability was determined 72 hours after treatment. […] EJ1 (FIG. 9F) or HCT116 (FIG. 9G) cells were transfected with a luciferase siRNA or the same set of siRNAs against Bcl-2, Bcl-XL, or Mcl-1 siRNAs as in FIG. 9E. 24 hours post-transfection, cells were treated with different amounts of AZD1152. Cell viability was determined 72 hours after exposure to AZD1152. […] Cell viability was determined 72 hours post-transfection. In all figures, cell viability was expressed as the percentage of untransfected, DMSO-treated control cells. The red viability curve represents a synergistic combination.
as §1

[2] = system: NCI-H146 human small cell lung carcinoma cells; test: Cellular efficacy in human tumor cell line (MTS viability assay); type: cell-based; conditions: NCI-H146; 10% human serum, 48 hours; Table 1; read-out: NCI-H146 Cellular Efficacy EC50
Summary of the method: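 Cells plated at 50,000/well in medium with 10% human serum in place of FBS. Treated with 2-fold serial dilutions from 10 μM to 0.020 μM, in duplicate, at least 3 separate runs. Viable cells measured by MTS after 48 h of compound exposure.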

Bcl-2 protein = target: T1, Bcl-2 protein (Homo sapiens, UniProt P10415, DELINS35-91DVEENRTEAPEGTESE, form not given); test: Bcl-2 binding affinity, fluorescence polarization with fluorescein-labeled BAX peptide; conditions: Wang's equation, read-out: Target Binding Affinity Ki (Bcl-2)
T1 construct: fused on or other part: A short piece of the Bcl-xL (Q07817) loop replaces Bcl-2 loop residues 35-91; The C-terminal membrane anchor is absent
T1 sequence (P10415 with tags, fused parts or gaps with the stated changes): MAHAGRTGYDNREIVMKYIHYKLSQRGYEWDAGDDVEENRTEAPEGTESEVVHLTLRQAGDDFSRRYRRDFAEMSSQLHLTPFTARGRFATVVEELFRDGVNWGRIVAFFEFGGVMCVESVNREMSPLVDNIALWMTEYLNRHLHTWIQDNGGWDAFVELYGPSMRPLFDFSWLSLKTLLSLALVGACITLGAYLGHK

[3] = Pharmacokinetic evaluation in rat; type: in vivo; conditions: male, Sprague-Dawley, plasma, single 5 mg/kg oral dose, Table 1, read-out: Pharmacokinetic area under the plasma concentration Curve (rat) AUC0-∞
Summary of the method: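 Male Sprague-Dawley rats (n=3/group) received a single 2 mg/kg IV (jugular slow bolus) or 5 mg/kg oral gavage dose in 10% DMSO/PEG-400; tail-vein plasma sampled to 24 h. Acetonitrile-precipitated plasma quantified by LC-MS/MS (LOQ 0.01 μg/mL); AUC0-∞ by linear trapezoidal rule plus Ct/β extrapolation.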

Bcl-XL protein = Bcl-XL protein (Homo sapiens, UniProt Q07817); test: Bcl-XL binding affinity, fluorescence polarization with fluorescein-labeled BAD peptide; conditions: Wang's equation, read-out: Target Binding Affinity Ki (Bcl-XL)
Chain of Bcl-XL protein (Q07817 with tags, fused parts or gaps DEL45-84): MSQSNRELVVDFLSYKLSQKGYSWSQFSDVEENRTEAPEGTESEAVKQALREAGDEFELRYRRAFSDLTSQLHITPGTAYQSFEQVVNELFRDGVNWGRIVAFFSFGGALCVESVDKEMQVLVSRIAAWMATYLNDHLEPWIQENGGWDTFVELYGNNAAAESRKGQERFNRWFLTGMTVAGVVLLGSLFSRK
Description: A mixture comprising 125 μL per well of assay buffer (20 mM phosphate buffer (pH 7.4), 1 mM EDTA, 50 mM NaCl, 0.05% PF-68), 6 nM of Bcl-XL protein (prepared as described in Science 1997, 275, 983-986), 1 nM fluorescein-labeled BAD peptide (prepared in-house) and the DMSO solution of the compound was shaken for 2 minutes and placed in a LJL Analyst (LJL Bio Systems, CA). A negative control (DMSO, 15 nM BAD peptide, assay buffer) and a positive control (DMSO, 1 nM BAD peptide, 6 nM Bcl-XL, assay buffer) were used to determine the range of the assay. Polarization was measured at room temperature using a continuous Fluorescein lamp (excitation 485 nm, emission 530 nm). Percentage of inhibition was determined by (1-((mP value of well-negative control)/range))×100%.
Ki values shown in the tables below were determined using Wang's equation (Wang Z X., An Exact Mathematical Expression For Describing Competitive Binding Of Two Different Ligands To A Protein Molecule. FEBS Lett. 1995; 360:111-4)).

## CO[C@H]1C[C@@H]2CC[C@@H](C)[C@@](O)(O2)C(=O)C(=O)N2CCCC[C@H]2C(=O)O[C@H]([C@H](C)C[C@@H]2CC[C@@H](O)[C@H](OC)C2)CC(=O)[C@H](C)/C=C(\C)[C@@H](O)[C@@H](OC)C(=O)[C@H](C)C[C@H](C)/C=C/C=C/C=C/1C [rapamycin, reference compound]
B-cell lymphoma
  tumor regressions, agent alone: 10%

## rituximab: antibody, RITUXAN® (rituximab) [reference compound]
B-cell lymphoma
  tumor regressions, agent alone: no tumor regressions

## CC(C)C[C@H](NC(=O)[C@H](Cc1ccccc1)NC(=O)c1cnccn1)B(O)O [bortexomib, reference compound]
Mantle cell lymphoma
  tumor regressions, agent alone: no tumor regressions

## Cc1cc(Nc2cc(N3CCN(C)CC3)nc(Sc3ccc(NC(=O)C4CC4)cc3)n2)[nH]n1 [VX-680, cyclopropane carboxylic acid of {4-[4-(4-methyl-piperazin-1-yl)-6-(5-methyl-2H-pyrazol-3-ylamino)-pyrimidin-2-ylsulphanyl]-phenyl}-amide]
[1]
  Bliss analysis of cell viability, combination with ABT-263: synergistic (>15=synergistic)

## O=C(O)c1ccc(Nc2ncc3c(n2)-c2ccc(Cl)cc2C(c2c(F)cccc2F)=NC3)cc1 [MLN8054]
HCT116 cells
  synergy in combination with ABT-263 (cell viability): no synergy

## O=C(NS(=O)(=O)c1ccc(N[C@H](CCN2CCCC2)CSc2ccccc2)c(S(=O)(=O)C(F)(F)Cl)c1)c1ccc(N2CCN(CC3=C(c4ccc(Cl)cc4)CCCC3)CC2)cc1 [Example 35, 3-((chloro(difluoro)methyl)sulfonyl)-N-(4-(4-((2-(4-chlorophenyl)cyclohex-1-en-1-yl)methyl)piperazin-1-yl)benzoyl)-4-(((1R)-1-((phenylsulfanyl)methyl)-3-(pyrrolidin-1-yl)propyl)amino)benzenesulfonamide]
[2]
  pEC50: 8.12
Bcl-2 protein
  pKi: ≥ 9.00
[3]
  AUC(0-inf): 1260 nM·h
Bcl-XL protein
  pKi: ≥ 9.00

Source: patent US8624027B2, “Combination therapy for treating cancer and diagnostic assays for use therein” (AbbVie Inc., priority 2005, dated 2014)
